Laboratory results reported in patent US20020150901A1, “Novel nucleic acids, polypeptides, methods of making, and uses thereof” (priority 2000, published 2002).
“Also recorded” adds a separate entry of the source.

Assays:
Format in all cases: cell-based
[1] = tested on: "dummy" transfected control COS-7 cells; experiment: Aequorin bioluminescence assay, "dummy" transfected control COS-7 cells (no leukotriene receptor); conditions: 200 nM agonist, COS-7 cells with "dummy" insert and aequorin
Description: (§1) The photoprotein aequorin, originally isolated from luminescent jellyfish, has proven to be a highly sensitive and quantitative bioluminescence Ca^2+ indicator in cells.
(§2) The aequorin complex contains a 22,000 MW apoaequorin protein, oxygen and the luminophore, coelenterazine. When three Ca^2+ ions bind to this complex, coelenterazine is oxidized to coelenteramide, releasing carbon dioxide and light (emission maximum ˜466 nm). Aequorin has a broad detection range, allowing the measurement of Ca^2+ concentrations from ˜0.1 μM to >100 μM.
(§3) The HUMAN CysLT2 GPCR and apoaequorin cDNAs were transiently co-expressed in cells (the aequorin is targeted for expression in mitochondria). Once cells have been transfected with these expression vectors, they are incubated in a medium containing cell-permeant coelenterazine which reconstitutes the aequorin complex. After formation of the active aequorin complex, intracellular Ca^2+ release caused by activation of the HUMAN CysLT2 GPCR is measured by assaying cells for light production using a luminometer.
(§4) COS-7 cells were trypsinized and plated at 1.5×10^5 cells/well in 6 well tissue culture plates. The cells were grown overnight at 37° C. in DMEM supplemented with 10% FBS, 1% glutamine and 1% non essential amino acids. […]

HUMAN CysLT2 GPCR = biological target: T1, HUMAN CysLT2 GPCR (Homo sapiens, UniProt Q9NS75); experiment: Aequorin bioluminescence assay of intracellular calcium release, COS-7 cells expressing HUMAN CysLT2 GPCR; conditions: 200 nM antagonist injected 10 seconds before 200 nM LTC4 or LTD4
T1 construct: expressed in transfected cells; host or cells: COS-7
T1 sequence (Q9NS75 1-346): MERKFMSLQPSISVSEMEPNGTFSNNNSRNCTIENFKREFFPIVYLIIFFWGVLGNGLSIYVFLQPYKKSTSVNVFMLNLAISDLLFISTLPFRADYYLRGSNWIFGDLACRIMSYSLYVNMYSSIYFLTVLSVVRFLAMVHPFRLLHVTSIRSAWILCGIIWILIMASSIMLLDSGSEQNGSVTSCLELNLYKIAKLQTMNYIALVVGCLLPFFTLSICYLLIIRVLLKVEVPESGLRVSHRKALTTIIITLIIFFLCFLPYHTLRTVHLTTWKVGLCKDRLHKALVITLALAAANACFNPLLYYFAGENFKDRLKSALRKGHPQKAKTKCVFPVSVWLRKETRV
Description: as §1, §2, §3, §4

human CysLT1 receptor = biological target: T2, human CysLT1 receptor (Homo sapiens, UniProt Q9Y271); experiment: Aequorin bioluminescence assay of intracellular calcium release, COS-7 cells expressing human CysLT1; conditions: 200 nM antagonist injected 10 seconds before 200 nM LTC4 or LTD4
T2 construct: expressed in transfected cells; host or cells: COS-7
T2 sequence (Q9Y271 1-337): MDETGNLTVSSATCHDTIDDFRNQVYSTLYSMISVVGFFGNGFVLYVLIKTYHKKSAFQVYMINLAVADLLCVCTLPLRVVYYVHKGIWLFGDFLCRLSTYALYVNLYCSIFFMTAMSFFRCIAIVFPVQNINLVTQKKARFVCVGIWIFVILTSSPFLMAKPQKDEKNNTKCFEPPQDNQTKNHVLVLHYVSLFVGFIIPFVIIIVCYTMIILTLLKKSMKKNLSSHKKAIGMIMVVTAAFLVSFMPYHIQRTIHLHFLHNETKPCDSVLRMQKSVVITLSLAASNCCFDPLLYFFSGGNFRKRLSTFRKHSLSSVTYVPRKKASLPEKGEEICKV

block of LTC4 or LTD4 induced receptor activation by antagonist (human CysLT1 receptor) | SMILES | aequorin activation by agonist [1] | block of LTC4 or LTD4 induced receptor activation by antagonist (HUMAN CysLT2 GPCR)
 | CCCCC/C=C\C\C=C/C=C/C=C/[C@@H](SC[C@H](NC(=O)CC[C@H](N)C(=O)O)C(=O)NCC(=O)O)[C@@H](O)CCCC(=O)O [LTC4] | not on the “dummy” transfected control cells | 
 | CCCCC/C=C\C\C=C/C=C/C=C/[C@@H](SC[C@H](N)C(=O)NCC(=O)O)[C@@H](O)CCCC(=O)O [LTD4] | not on the “dummy” transfected control cells | 
effectively blocked | CN(C)C(=O)CCSC(SCCC(=O)O)c1cccc(/C=C/c2ccc3ccc(Cl)cc3n2)c1 (stereo not shown) [MK571] |  | neither antagonist significantly inhibited; also recorded: failed to block; also recorded: resistance to inhibition
